Experimental data taken from BigSolDB 2.1.

Q: Which solubility (mole fraction) (in DMF, 278.15 K) does the source give for `O=C(NCCO[N+](=O)[O-])c1cccnc1` here?
A: 0.0135

Q: What about the solubility (mole fraction) (in DMF, 283.15 K) of the same molecule?
A: 0.0146

Q: And the solubility (mole fraction) (in DMF, 288.15 K)?
A: 0.0156

Q: And the solubility (mole fraction) (in DMF, 293.15 K)?
A: 0.0168

Q: And the solubility (mole fraction) (in DMF, 298.15 K)?
A: 0.0179

Q: And the solubility (mole fraction) (in DMF, 303.15 K)?
A: 0.0191

Q: And the solubility (mole fraction) (in DMF, 308.15 K)?
A: 0.0202

Q: What about the solubility (mole fraction) (in DMF, 313.15 K) of the same molecule?
A: 0.0213

Q: What about the solubility (mole fraction) (in DMF, 318.15 K) of the same molecule?
A: 0.0225

Q: What about the solubility (mole fraction) (in DMF, 323.15 K) of the same molecule?
A: 0.024

Q: And the solubility (mole fraction) (in ethanol, 278.15 K)?
A: 0.00153

Q: And the solubility (mole fraction) (in ethanol, 283.15 K)?
A: 0.00167

Q: And the solubility (mole fraction) (in ethanol, 288.15 K)?
A: 0.00181

Q: And the solubility (mole fraction) (in ethanol, 293.15 K)?
A: 0.00195

Q: And the solubility (mole fraction) (in ethanol, 298.15 K)?
A: 0.00208

Q: And the solubility (mole fraction) (in ethanol, 303.15 K)?
A: 0.00222

Q: What about the solubility (mole fraction) (in ethanol, 308.15 K) of the same molecule?
A: 0.00236

Q: And the solubility (mole fraction) (in ethanol, 313.15 K)?
A: 0.0025

Q: What about the solubility (mole fraction) (in ethanol, 318.15 K) of the same molecule?
A: 0.00264

Q: And the solubility (mole fraction) (in ethanol, 323.15 K)?
A: 0.00281

Q: What about the solubility (mole fraction) (in isopropanol, 278.15 K) of the same molecule?
A: 0.0011

Q: And the solubility (mole fraction) (in isopropanol, 283.15 K)?
A: 0.00119

Q: And the solubility (mole fraction) (in isopropanol, 288.15 K)?
A: 0.00129

Q: What about the solubility (mole fraction) (in isopropanol, 293.15 K) of the same molecule?
A: 0.00139

Q: And the solubility (mole fraction) (in isopropanol, 298.15 K)?
A: 0.00149

Q: And the solubility (mole fraction) (in isopropanol, 303.15 K)?
A: 0.00159

Q: What about the solubility (mole fraction) (in isopropanol, 308.15 K) of the same molecule?
A: 0.00169

Q: And the solubility (mole fraction) (in isopropanol, 313.15 K)?
A: 0.00178

Q: What about the solubility (mole fraction) (in isopropanol, 318.15 K) of the same molecule?
A: 0.00188

Q: And the solubility (mole fraction) (in isopropanol, 323.15 K)?
A: 0.002

Q: What about the solubility (mole fraction) (in methanol, 278.15 K) of the same molecule?
A: 0.0017

Q: What about the solubility (mole fraction) (in methanol, 283.15 K) of the same molecule?
A: 0.00182

Q: What about the solubility (mole fraction) (in methanol, 288.15 K) of the same molecule?
A: 0.00195

Q: And the solubility (mole fraction) (in methanol, 293.15 K)?
A: 0.00211

Q: And the solubility (mole fraction) (in methanol, 298.15 K)?
A: 0.00226

Q: What about the solubility (mole fraction) (in methanol, 303.15 K) of the same molecule?
A: 0.0024

Q: What about the solubility (mole fraction) (in methanol, 308.15 K) of the same molecule?
A: 0.00256

Q: What about the solubility (mole fraction) (in methanol, 313.15 K) of the same molecule?
A: 0.00271

Q: What about the solubility (mole fraction) (in methanol, 318.15 K) of the same molecule?
A: 0.00286

Q: What about the solubility (mole fraction) (in methanol, 323.15 K) of the same molecule?
A: 0.00306

Q: What about the solubility (mole fraction) (in water, 278.15 K) of the same molecule?
A: 0.000204

Q: What about the solubility (mole fraction) (in water, 283.15 K) of the same molecule?
A: 0.000222

Q: And the solubility (mole fraction) (in water, 288.15 K)?
A: 0.00024

Q: And the solubility (mole fraction) (in water, 293.15 K)?
A: 0.000257

Q: What about the solubility (mole fraction) (in water, 298.15 K) of the same molecule?
A: 0.000275

Q: What about the solubility (mole fraction) (in water, 303.15 K) of the same molecule?
A: 0.000291

Q: And the solubility (mole fraction) (in water, 308.15 K)?
A: 0.000307

Q: What about the solubility (mole fraction) (in water, 313.15 K) of the same molecule?
A: 0.000325

Q: What about the solubility (mole fraction) (in water, 318.15 K) of the same molecule?
A: 0.000346

Q: And the solubility (mole fraction) (in water, 323.15 K)?
A: 0.000367
